Results: patent publication US6608086B2, “Dihydropyridines and new uses thereof” (Synaptic Pharmaceutical Corporation, priority 1993, dated 2003)
Like-named read-outs stand apart in the source and are kept apart here.

Legend:
[1] = target: T1, α2B receptor (Homo sapiens, UniProt P18089); experiment: Competition binding, [3H]rauwolscine, human α2B receptor; settings: [3H]rauwolscine
T1 construct: host or cells: LM(tk-) cells, line L-NGC-α2B
T1 sequence (P18089 1-450): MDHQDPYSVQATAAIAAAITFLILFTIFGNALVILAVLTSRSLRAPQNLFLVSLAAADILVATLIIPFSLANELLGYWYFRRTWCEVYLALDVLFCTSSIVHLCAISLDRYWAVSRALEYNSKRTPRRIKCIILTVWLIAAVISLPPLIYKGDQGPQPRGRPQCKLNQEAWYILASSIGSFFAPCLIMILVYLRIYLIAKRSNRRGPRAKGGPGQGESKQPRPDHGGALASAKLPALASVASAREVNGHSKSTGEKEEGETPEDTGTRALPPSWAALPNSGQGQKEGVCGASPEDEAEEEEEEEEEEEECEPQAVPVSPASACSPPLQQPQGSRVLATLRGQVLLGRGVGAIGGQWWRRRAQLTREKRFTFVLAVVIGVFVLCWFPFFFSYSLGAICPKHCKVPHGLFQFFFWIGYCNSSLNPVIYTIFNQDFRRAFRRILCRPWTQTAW
Outline: (§1)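 LM(tk−) lysates, stable α2A/α2B/α2C transfectants; 25 mM glycylglycine pH 7.6 (RT). [3H]rauwolscine 0.5 nM, equilibrium competition; NSB 10 μM phentolamine. GF/B filtration, cell harvester.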

[2] = target: T2, α2C receptor (Homo sapiens, UniProt P18825); experiment: Competition binding, [3H]rauwolscine, human α2C receptor; settings: [3H]rauwolscine
T2 construct: host or cells: LM(tk-) cells, line L-α2C
T2 sequence (P18825 1-462): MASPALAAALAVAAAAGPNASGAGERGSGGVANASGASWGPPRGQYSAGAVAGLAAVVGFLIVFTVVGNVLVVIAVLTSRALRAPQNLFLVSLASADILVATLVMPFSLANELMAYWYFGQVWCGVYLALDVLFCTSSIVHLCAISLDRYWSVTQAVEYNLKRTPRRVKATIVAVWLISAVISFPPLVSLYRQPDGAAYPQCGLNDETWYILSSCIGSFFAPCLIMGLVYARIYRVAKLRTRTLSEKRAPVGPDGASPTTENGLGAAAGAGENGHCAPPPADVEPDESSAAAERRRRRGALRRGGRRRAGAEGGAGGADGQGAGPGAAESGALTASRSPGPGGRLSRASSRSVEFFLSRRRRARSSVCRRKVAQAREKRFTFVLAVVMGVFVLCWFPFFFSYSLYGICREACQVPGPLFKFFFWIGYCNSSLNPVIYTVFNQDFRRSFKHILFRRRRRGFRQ
Outline: as §1

[3] = pKi alpha-2 2b, LM(tk-) cell line L-NGC-α2B, SEM and n in lines below
[4] = LM(tk-) cell line L-α2C, SEM and n in lines below, read-out: pKi alpha-2 2c (converted)
[5] = pKi alpha-2 2b, human α2B receptor, LM(tk−) cells
[6] = pKi alpha-2 2c, human α2C receptor, LM(tk−) cells
[7] = human α2C receptor, LM(tk−) cells, read-out: pKi alpha-2 2c (converted)

| SMILES | Ki [1, 5] | Ki [2, 6] | further results |
| --- | --- | --- | --- |
| COC(=O)C1=C(C)NC(C)=C(C(=O)NCCCN2CCC(c3ccccc3)(c3ccccc3)CC2)C1c1cccnc1 (stereo not shown) [Example 14, 1,4-Dihydro-3-methoxycarbonyl-2.6-dimethyl-5-(N-(3-(4,4-diphenylpiperidin-1-yl)propyl)carboxamido)-4-(3-pyridyl)pyridine] |  |  | Ki [1, 3]: 1350 nM; Ki [2, 4]: 1100 nM |
| CCC1=C(C(N)=O)C(c2ccc([N+](=O)[O-])cc2)C(C(=O)NCCCN2CCC(c3ccccc3)(c3ccccc3)CC2)=C(C)N1 (stereo not shown) [Example 41, 3-Carboxamido-2-ethyl-1,4-dihydro-6-methyl-4-(4-nitrophenyl)-3-{N-[3-(4,4-diphenylpiperidin-1-yl)propyl]}carboxamidopyridine] |  |  | Ki [1, 3]: 603 nM; Ki [2, 4]: 437 nM |
| CCC1=C(C(N)=O)C(c2ccc([N+](=O)[O-])cc2)C(C(=O)NCCCN2CCC(c3ccccc3)(c3ccccc3)CC2)=C(CC)N1 (stereo not shown) [Example 42, 5-carboxamido-2,6-diethyl-1,4-dihydro-4-(4-nitrophenyl)-3-{N-[3-(4,4-diphenylpiperidin-1-yl)propyl]}carboxamidopyridine] |  |  | Ki [1, 3]: 229 nM; Ki ([2]; pKi alpha-2 2c, LM(tk-) cell line L-α2C, SEM and n in lines below): 170 nM |
| CCC1=C(C(N)=O)C(c2ccc(S(C)(=O)=O)cc2)C(C(=O)NCCCN2CCC(c3ccccc3)(c3ccccc3)CC2)=C(CC)N1 (stereo not shown) [Example 116, 5-Carboxamido-2,6-diethyl-1,4-dihydro-4-(4-methanesulfonylphenyl)-3-(N-(3-(4,4-diphenylpiperidin-1-yl)propyl)carboxamido)-pyridine] | 372 nM | 741 nM |  |
| CCC1=C(C(=O)NC)C(c2ccc([N+](=O)[O-])cc2)C(C(=O)NCCCN2CCC(c3ccccc3)(c3ccccc3)CC2)=C(CC)N1 (stereo not shown) [Example 128, 2,6-Diethyl-1,4-dihydro-5-(N-methyl)carboxamido-4-(4-nitrophenyl)-3-{N-[3-(4,4-diphenylpiperidin-1-yl)propyl]}carboxamidopyridine] | 437 nM |  | Ki [2, 7]: 219 nM |
| CCC1=C(C(=O)OCCC#N)C(c2ccc([N+](=O)[O-])cc2)C(C(=O)NCCCN2CCC(c3ccccc3)(c3ccccc3)CC2)=C(COC)N1 (stereo not shown) [Example 135] |  |  | Ki ([1]; human α2B receptor, LM(tk−) cells, read-out: pKi alpha-2 2b (converted)): 389 nM; Ki [2, 7]: 339 nM |
| CCC1=C(C(=O)NCCCN2CCC(c3ccccc3)(c3ccccc3)CC2)C(c2ccc([N+](=O)[O-])cc2)C(C(=O)OC(C)(C)C)=C(COCCN=[N+]=[N-])N1 (stereo not shown) [Example 139] | 1260 nM | 309 nM |  |
| CCC1=C(C(=O)OCCC#N)C(c2ccc([N+](=O)[O-])cc2)C(C(=O)NCCCN2CCC(c3ccccc3)(c3ccccc3)CC2)=C(COCCN=[N+]=[N-])N1 (stereo not shown) [Example 141] | 437 nM | 355 nM |  |
| CCNC(=O)C1=C(COCCN=[N+]=[N-])NC(CC)=C(C(=O)NCCCN2CCC(c3ccccc3)(c3ccccc3)CC2)C1c1ccc([N+](=O)[O-])cc1 (stereo not shown) [Example 147, 2-((2-Azidoethyl)oxy)methyl-6-ethyl-3-(N-ethyl)carboxamido-1,4-dihydro-4-(4-nitro)phenyl-5-(N-(3-(4,4-diphenylpiperidin-1-yl-)propyl))carboxamidopyridine] | 1100 nM | 251 nM |  |
| CCC1=C(C(=O)NCCCN2CCC(c3ccccc3)(c3ccccc3)CC2)C(c2ccc([N+](=O)[O-])cc2)C(C(N)=O)=C(COCCN=[N+]=[N-])N1 (stereo not shown) [Example 149, 2-((2-Azidoethyl)oxy)methyl-3-carboxamido-6-ethyl-1,4-dihydro-4-(4-nitro) phenyl-5-(N-(3-(4,4-diphenylpiperidin-1-yl)propyl))carboxamidopyridine] | 562 nM | 257 nM |  |
| CCC1=C(C(=O)NCCCN2CCC(c3ccccc3)(c3ccccc3)CC2)C(c2ccc([N+](=O)[O-])cc2)C(C(=O)NC)=C(COCCN=[N+]=[N-])N1 (stereo not shown) [Example 151, 2-((2-Azidoethyl)oxy)methyl-6-ethyl-1,4-dihydro-3-(N-methyl)carboxamido-4-(4-nitro)phenyl-5-(N-(3-(4,4-diphenylpiperidin-1-yl)propyl))carboxamidopyridine] | 537 nM | 209 nM |  |
